{"source": "paper PMC4956231", "about": "“Molecular Mechanisms for Drug Hypersensitivity Induced by the Malaria Parasite’s Chloroquine Resistance Transporter” (PLoS Pathogens, 2016)", "key": {"[1]": {"system": "P. falciparum line 106/1^76I", "details": "106/1^76I (76I-PfCRT^K1); IC50 in line divided by IC50 in drug-sensitive reference strain; cited from earlier work"}, "P. falciparum 106/1": {"system": "P. falciparum 106/1", "details": "106/1 (76K-PfCRT^K1); IC50 in line divided by IC50 in drug-sensitive reference strain; cited from earlier work"}, "PfCRT^K1 [2]": {"system": "PfCRT^K1", "details": "oocytes; cited from earlier work"}, "[3]": {"system": "P. falciparum line 106/1^76T", "details": "106/1^76T (PfCRT^K1); IC50 in line divided by IC50 in drug-sensitive reference strain; cited from earlier work"}, "[4]": {"system": "P. falciparum line 106/1^76I,352R", "details": "106/1^76I,352R (76I,352R-PfCRT^K1); IC50 in line divided by IC50 in drug-sensitive reference strain; cited from earlier work"}, "76N-PfCRT^K1": {"system": "76N-PfCRT^K1", "assay": "[3H]drug transport into Xenopus oocytes expressing PfCRT", "type": "cell-based, Plasmodium falciparum", "details": "transport via 76N-PfCRT^K1 in oocytes, CQ pH 6.0, quinine and quinidine pH 5.0", "protocol": "(§1) For each treatment, 10 oocytes were transferred to a 5 mL polystyrene round bottom tube (Falcon) and washed twice with 3.5 mL of ND96 buffer, with the residual buffer removed by pipette. […] The assay was terminated by removing the reaction buffer with a pipette and washing the oocytes twice with 3.5 mL of ice-cold ND96 buffer. Each oocyte was transferred to a separate well of a white 96-well plate (NUNC or PerkinElmer), incubated overnight at room temperature in 30 μL of 10% SDS, and mixed on an orbital shaker the following day for approximately 5 min. The lysed oocyte was then combined with 150 μL of MicroScint-40 microscintillant (PerkinElmer), the plate covered with a TopSeal-A (PerkinElmer), and the radioactivity measured with a PerkinElmer MicroBeta^2 microplate liquid scintillation analyzer.\nNote that noninjected oocytes and oocytes expressing PfCRT^3D7 take up [^3H]CQ to similar (low) levels via simple diffusion of the neutral species of the drug; this represents the ‘background’ level of [^3H]CQ accumulation in oocytes (refer to Martin et al. for full data and discussion)."}, "[5]": {"system": "P. falciparum isolate HON", "details": "HON (PfCRT^3D7); IC50 in line divided by IC50 in drug-sensitive reference strain; cited from earlier work"}, "[6]": {"system": "P. falciparum line 106/1^76I,369F", "details": "106/1^76I,369F (76I,369F-PfCRT^K1); IC50 in line divided by IC50 in drug-sensitive reference strain; cited from earlier work"}, "[7]": {"system": "P. falciparum line 106/1^76I,352K", "details": "106/1^76I,352K (76I,352K-PfCRT^K1); IC50 in line divided by IC50 in drug-sensitive reference strain; cited from earlier work"}, "76K-PfCRT^K1": {"system": "76K-PfCRT^K1", "assay": "Trans-stimulation of [3H]CQ uptake by microinjected compound in oocytes", "type": "cell-based, Plasmodium falciparum", "details": "oocytes expressing 76K-PfCRT^K1, microinjected amantadine", "protocol": "(§2) A subset of experiments measured the ability of unlabeled amantadine to trans-stimulate the uptake of [^3H]CQ into the oocyte. Immediately prior to the commencement of the experiment, the oocytes (days 3–4 post-injection of the cRNA) were microinjected with either amantadine (estimated intracellular concentrations of 1, 2.5, 5, 10, 15, or 20 mM) or a control treatment (buffer, spermine, or histidine; the estimated intracellular concentrations of spermine and histidine were 5 and 10 mM). The volume injected was 50 nL and the intracellular concentrations were calculated using previous estimates of the volume of stage V-VI oocytes (~400 nL [77]). The resealed oocytes were then incubated at 16–18°C in OR^2+ buffer for approximately 5 min and the influx of [^3H]CQ was measured as described above. […] The Michaelis-Menten equation was then fitted to the data to derive the kinetic parameters for the trans-stimulation of [^3H]CQ transport by amantadine."}, "PfCRT^3D7": {"system": "PfCRT^3D7", "assay": "Trans-stimulation of [3H]CQ uptake by microinjected compound in oocytes", "type": "cell-based, Plasmodium falciparum", "details": "oocytes expressing PfCRT^3D7, microinjected amantadine", "protocol": "as §2"}, "PfCRT^Dd2": {"system": "PfCRT^Dd2", "assay": "Trans-stimulation of [3H]CQ uptake by microinjected compound in oocytes", "type": "cell-based, Plasmodium falciparum", "details": "oocytes expressing PfCRT^Dd2 microinjected with unlabeled amantadine", "protocol": "as §2"}, "PfCRT^K1 [8]": {"system": "PfCRT^K1", "assay": "Trans-stimulation of [3H]CQ uptake by microinjected compound in oocytes", "type": "cell-based, Plasmodium falciparum", "protocol": "as §2"}, "noninjected oocytes": {"system": "noninjected oocytes", "assay": "Trans-stimulation of [3H]CQ uptake by microinjected compound in oocytes", "type": "cell-based, Xenopus laevis", "details": "microinjected amantadine", "protocol": "as §2"}, "76I-PfCRT^K1 [9]": {"molecular_target": "T1, 76I-PfCRT^K1 (Plasmodium falciparum, UniProt Q9N623, A220S/K76I/M74I/N326S/N75E/Q271E/R371I)", "T1 sequence (Q9N623 whole entry A220S/K76I/M74I/N326S/N75E/Q271E/R371I)": "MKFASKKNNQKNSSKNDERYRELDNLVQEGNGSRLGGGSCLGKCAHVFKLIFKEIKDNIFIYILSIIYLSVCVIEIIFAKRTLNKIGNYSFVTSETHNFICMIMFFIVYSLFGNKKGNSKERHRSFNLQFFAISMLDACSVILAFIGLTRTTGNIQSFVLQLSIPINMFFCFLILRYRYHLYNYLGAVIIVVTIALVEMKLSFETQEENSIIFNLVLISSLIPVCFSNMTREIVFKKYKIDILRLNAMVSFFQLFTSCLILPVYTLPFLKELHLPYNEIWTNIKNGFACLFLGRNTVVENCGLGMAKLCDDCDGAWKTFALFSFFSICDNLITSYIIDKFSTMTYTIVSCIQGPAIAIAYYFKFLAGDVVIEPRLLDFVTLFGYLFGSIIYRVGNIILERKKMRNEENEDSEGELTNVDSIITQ", "assay": "Inhibition of PfCRT-mediated [3H]CQ transport in oocytes", "type": "cell-based", "details": "via 76I-PfCRT^K1 in oocytes", "protocol": "as §1\n(§3) The IC50 values presented in Fig 3A were determined in SigmaPlot by a least-squares fit of the equation y = y min + [(y max—y min)/(1 + ([inhibitor]/IC50)c] to the data, where y is PfCRT-mediated CQ transport, y min and y max are the minimum and maximum values of y, and c is a fitted constant. PfCRT-mediated CQ transport was calculated by subtracting the uptake measured in the control oocytes (oocytes expressing 76K PfCRT^K1) from that in oocytes expressing 76I-PfCRT^K1 or 76I,369F-PfCRT^K1."}, "76I,369F-PfCRT^K1 [10]": {"molecular_target": "T2, 76I,369F-PfCRT^K1 (Plasmodium falciparum, UniProt Q9N623, A220S/K76I/M74I/N326S/N75E/Q271E/R371I/V369F)", "T2 sequence (Q9N623 whole entry A220S/K76I/M74I/N326S/N75E/Q271E/R371I/V369F)": "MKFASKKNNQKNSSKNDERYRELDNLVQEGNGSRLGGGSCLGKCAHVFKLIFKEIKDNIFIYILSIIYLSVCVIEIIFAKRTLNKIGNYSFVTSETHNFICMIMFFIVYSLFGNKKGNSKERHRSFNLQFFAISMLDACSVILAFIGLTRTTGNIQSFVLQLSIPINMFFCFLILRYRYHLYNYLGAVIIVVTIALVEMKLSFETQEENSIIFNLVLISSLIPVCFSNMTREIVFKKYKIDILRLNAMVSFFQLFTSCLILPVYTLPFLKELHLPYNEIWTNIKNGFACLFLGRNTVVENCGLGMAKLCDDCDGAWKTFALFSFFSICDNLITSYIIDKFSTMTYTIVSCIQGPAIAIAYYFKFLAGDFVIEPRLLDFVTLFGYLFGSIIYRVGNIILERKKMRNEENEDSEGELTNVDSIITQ", "assay": "Inhibition of PfCRT-mediated [3H]CQ transport in oocytes", "type": "cell-based", "details": "via 76I,369F-PfCRT^K1 in oocytes", "protocol": "as §1, §3"}, "76I-PfCRT^K1 [11]": {"molecular_target": "T1, 76I-PfCRT^K1", "assay": "Trans-stimulation of [3H]CQ uptake by microinjected compound in oocytes", "type": "cell-based", "protocol": "as §2"}, "PfNT1": {"molecular_target": "PfNT1 (Plasmodium falciparum, UniProt Q8IDM6)", "sequence (Q8IDM6 whole entry)": "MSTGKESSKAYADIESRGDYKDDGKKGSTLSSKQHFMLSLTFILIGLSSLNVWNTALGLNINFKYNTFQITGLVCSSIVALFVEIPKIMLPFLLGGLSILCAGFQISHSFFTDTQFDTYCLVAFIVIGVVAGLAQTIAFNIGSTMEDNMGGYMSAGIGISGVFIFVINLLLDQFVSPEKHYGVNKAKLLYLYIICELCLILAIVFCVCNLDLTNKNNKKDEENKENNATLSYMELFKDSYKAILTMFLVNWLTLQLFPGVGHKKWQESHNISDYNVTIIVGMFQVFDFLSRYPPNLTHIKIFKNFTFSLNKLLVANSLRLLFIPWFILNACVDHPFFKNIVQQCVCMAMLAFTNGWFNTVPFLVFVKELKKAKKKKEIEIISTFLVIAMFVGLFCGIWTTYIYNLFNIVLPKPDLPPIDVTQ", "assay": "Trans-stimulation of [3H]CQ uptake by microinjected compound in oocytes", "type": "cell-based", "details": "oocytes expressing PfNT1, microinjected amantadine", "protocol": "as §2"}, "76I,369F-PfCRT^K1 [12]": {"molecular_target": "T2, 76I,369F-PfCRT^K1", "assay": "Trans-stimulation of [3H]CQ uptake by microinjected compound in oocytes", "type": "cell-based", "protocol": "as §2"}}, "note": "Marks after values point to notes of the source that are not given here.", "data": [{"compound": "CCN(CC)CCCC(C)Nc1ccnc2cc(Cl)ccc12", "note": "(centres unmarked) [CQ, chloroquine]", "values": [{"measurement": "Drug susceptibility (In vitro resistance index)", "setting": "[1]", "value": "15.66 ± 2.20"}, {"measurement": "Drug susceptibility (In vitro resistance index)", "setting": "P. falciparum 106/1", "value": "1.10 ± 0.06"}, {"measurement": "CQ transport activity of PfCRT^K1, higher than that of PfCRT^Dd2", "setting": "PfCRT^K1 [2]", "value": "~ 20%"}, {"measurement": "Drug susceptibility (In vitro resistance index)", "setting": "[3]", "value": "12.95 ± 0.95"}, {"measurement": "Drug susceptibility (In vitro resistance index)", "setting": "[4]", "value": "1.58 ± 0.02"}, {"measurement": "Apparent Vmax", "setting": "76N-PfCRT^K1", "value": "48.0 ± 4.5^c,f (7) pmol per oocyte/h"}, {"measurement": "Km", "setting": "76N-PfCRT^K1; read-out: Apparent Km", "value": "303 ± 5", "unit": "µM"}, {"measurement": "Drug susceptibility (In vitro resistance index)", "setting": "[5]", "value": 1}, {"measurement": "Drug susceptibility (In vitro resistance index)", "setting": "[6]", "value": 3.53}, {"measurement": "Drug susceptibility (In vitro resistance index)", "setting": "[7]", "value": "0.91 ± 0.09"}]}, {"compound": "NC12CC3CC(CC(C3)C1)C2", "note": "[amantadine]", "values": [{"measurement": "effect on accumulation of [3H]CQ (trans-stimulation)", "setting": "76K-PfCRT^K1", "value": "did not affect"}, {"measurement": "effect on accumulation of [3H]CQ (trans-stimulation)", "setting": "PfCRT^3D7", "value": "did not affect"}, {"measurement": "increase in the rate of CQ influx (trans-stimulation)", "setting": "PfCRT^Dd2", "value": "6.7 ± 0.3", "unit": "pmol per oocyte/h"}, {"measurement": "Hill coefficient (trans-stimulation of [3H]CQ uptake)", "setting": "PfCRT^K1 [8]; PfCRT^K1", "value": "1.63 ± 0.12"}, {"measurement": "increase in the rate of CQ influx (trans-stimulation)", "setting": "PfCRT^K1 [8]; oocytes expressing PfCRT^K1 microinjected with unlabeled amantadine", "value": "6.4 ± 0.2", "unit": "pmol per oocyte/h"}, {"measurement": "effect on accumulation of [3H]CQ (trans-stimulation)", "setting": "noninjected oocytes", "value": "did not affect"}, {"measurement": "IC50", "setting": "76I-PfCRT^K1 [9]", "value": "186 ± 16", "unit": "µM"}, {"measurement": "IC50", "setting": "76I,369F-PfCRT^K1 [10]", "value": "174 ± 26", "unit": "µM"}, {"measurement": "Hill coefficient (trans-stimulation of [3H]CQ uptake)", "setting": "76I-PfCRT^K1 [11]; 76I-PfCRT^K1", "value": "1.49 ± 0.07"}, {"measurement": "increase in the rate of CQ influx (trans-stimulation)", "setting": "76I-PfCRT^K1 [11]; oocytes expressing 76I-PfCRT^K1 microinjected with unlabeled amantadine", "value": "0.68 ± 0.04", "unit": "pmol per oocyte/h"}, {"measurement": "effect on accumulation of [3H]CQ (trans-stimulation)", "setting": "PfNT1", "value": "did not affect"}, {"measurement": "Hill coefficient (trans-stimulation of [3H]CQ uptake)", "setting": "76I,369F-PfCRT^K1 [12]; 76I,369F-PfCRT^K1", "value": "1.46 ± 0.05"}, {"measurement": "increase in the rate of CQ influx (trans-stimulation)", "setting": "76I,369F-PfCRT^K1 [12]; oocytes expressing 76I,369F-PfCRT^K1 microinjected with unlabeled amantadine", "value": "0.43 ± 0.02", "unit": "pmol per oocyte/h"}]}]}
